# In patent publication US20250262279A1, “DOSE REGIMEN FOR LONG-ACTING GLP1/GLUCAGON RECEPTOR AGONISTS” (Boehringer Ingelheim International GmbH, priority 2021, published 2025):
# Assay: Example 3: safety (AEs, laboratory, ECG, vital signs, NASH scores)
# Format: in vivo, human
# Experimental: • Semaglutide • Dose: 0.25, 0.25, 0.25, 0.25, 0.5, 0.5, 0.5, 0.5, 1.0 mg (weeks 9−16) once weekly • Mode of administration: Solution for injection
# Safety endpoints included Columbia-Suicide Severity Rating Scale (C-SSRS) and various electrocardiograms (ECG) assessments. Safety was assessed based on adverse events (AEs), adverse event of special interest (AESIs), clinical laboratory assessments, vital signs, and physical examination. AESIs were pre-specified in the protocol as pancreatitis and hepatic injury.
# Analyses of safety were descriptive.
smiles,measurement,setting,value
"CC[C@H](C)[C@H](NC(=O)[C@H](Cc1ccccc1)NC(=O)[C@H](CCC(=O)O)NC(=O)[C@H](CCCCNC(=O)COCCOCCNC(=O)COCCOCCNC(=O)CC[C@H](NC(=O)CCCCCCCCCCCCCCCCC(=O)O)C(=O)O)NC(=O)[C@H](C)NC(=O)[C@H](C)NC(=O)[C@H](CCC(N)=O)NC(=O)CNC(=O)[C@H](CCC(=O)O)NC(=O)[C@H](CC(C)C)NC(=O)[C@H](Cc1ccc(O)cc1)NC(=O)[C@H](CO)NC(=O)[C@H](CO)NC(=O)[C@@H](NC(=O)[C@H](CC(=O)O)NC(=O)[C@H](CO)NC(=O)[C@@H](NC(=O)[C@H](Cc1ccccc1)NC(=O)[C@@H](NC(=O)CNC(=O)[C@H](CCC(=O)O)NC(=O)C(C)(C)NC(=O)[C@@H](N)Cc1cnc[nH]1)[C@@H](C)O)[C@@H](C)O)C(C)C)C(=O)N[C@@H](C)C(=O)N[C@@H](Cc1c[nH]c2ccccc12)C(=O)N[C@@H](CC(C)C)C(=O)N[C@H](C(=O)N[C@@H](CCCNC(=N)N)C(=O)NCC(=O)N[C@@H](CCCNC(=N)N)C(=O)NCC(=O)O)C(C)C [semaglutide, reference compound]",deaths,"Ex.3, whole trial",no deaths
same,"AEs leading to discontinuation of trial medication, number of patients",in vivo,2 N
same,"AEs leading to discontinuation of trial medication, percentage of patients",in vivo,(4.0) %
same,"AEs of special interest, number of patients",in vivo,0 N
same,"Any AE, number of patients",in vivo,26 N
same,"Any AE, percentage of patients",in vivo,(52.0) %
same,"Investigator defined drug-related AEs, number of patients",in vivo,19 N
same,"Investigator defined drug-related AEs, percentage of patients",in vivo,(38.0) %
same,"Serious AEs, number of patients",in vivo,0 N
same,"Severe AEs, number of patients",in vivo,0 N
same,cases of pancreatitis,in vivo,no cases of pancreatitis
same,patients with SAEs,in vivo,0 patients
same,patients with SAEs assessed as drug-related by the investigator,in vivo,0 patients
same,proportion of patients with PCSA high glucose on treatment,in vivo,5.0%
same,severe AEs and serious AEs,in vivo,no severe AEs or serious AEs
